Test results reported in ChEMBL document CHEMBL1156411, “New axane and oppositane sesquiterpenes from Teclea nobilis” (J Nat Prod, 2002).
Calls of active or inactive are those of the source.

How the values were obtained:
Format in all cases: functional, organism-based
Plasmodium falciparum [1] = experiment: Antiplasmodial activity against Plasmodium falciparum W2
Cryptococcus neoformans = experiment: Antimicrobial activity against Cryptococcus neoformans
Staphylococcus aureus [2] = experiment: Antimicrobial activity against methicillin-resistant Staphylococcus aureus
Staphylococcus aureus [3] = experiment: Antimicrobial activity against Staphylococcus aureus
Plasmodium falciparum [4] = experiment: Antiplasmodial activity against Plasmodium falciparum D6
Candida albicans = experiment: Antimicrobial activity against Candida albicans

Measured: Activity

C=C1CC[C@@H](O)[C@]2(C)CC[C@H](C(=O)C(C)C)[C@@H]12
inactive: all assays above

C=C1CC[C@H](O)[C@@]2(C)CC[C@H](C(=O)C(C)C)[C@@H]12
inactive: all assays above
